For one test, the target named is T1, PnpC1C2 (Pseudomonas putida, UniProt C6FI41).
T1 construct: gene pnpC2; two-subunit complex, C-terminal His tag, expressed in E. coli BL21(DE3), Ni-NTA purified; with hydroquinone dioxygenase alpha subunit (hydroquinone 1,2-dioxygenase small subunit)
T1 sequence (C6FI41 1-339): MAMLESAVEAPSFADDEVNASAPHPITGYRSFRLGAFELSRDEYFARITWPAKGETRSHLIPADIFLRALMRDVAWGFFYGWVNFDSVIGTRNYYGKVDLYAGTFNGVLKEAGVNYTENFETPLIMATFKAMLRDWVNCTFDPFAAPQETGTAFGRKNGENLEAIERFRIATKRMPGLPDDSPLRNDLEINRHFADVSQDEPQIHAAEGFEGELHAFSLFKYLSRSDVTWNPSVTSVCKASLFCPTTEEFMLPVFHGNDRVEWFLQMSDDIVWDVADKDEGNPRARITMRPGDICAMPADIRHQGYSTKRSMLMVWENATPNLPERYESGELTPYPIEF
T1 sequence (C6FI40 1-164 partner): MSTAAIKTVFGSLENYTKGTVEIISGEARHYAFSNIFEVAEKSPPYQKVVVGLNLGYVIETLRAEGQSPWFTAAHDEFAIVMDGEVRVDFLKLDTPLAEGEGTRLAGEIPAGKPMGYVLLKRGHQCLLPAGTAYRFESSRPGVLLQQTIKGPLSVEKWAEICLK
Nature of the test: UV spectral change, absorption increase at […] nm. The test is classed as biochemical. The note with it: conditions as in an earlier paper.

The next test concerns the target T2, PnpA (Pseudomonas putida, UniProt C6FI48).
T2 construct: His-tagged (pET-pnpAhis), expressed in E. coli BL21(DE3), purified
T2 sequence (C6FI48 1-418): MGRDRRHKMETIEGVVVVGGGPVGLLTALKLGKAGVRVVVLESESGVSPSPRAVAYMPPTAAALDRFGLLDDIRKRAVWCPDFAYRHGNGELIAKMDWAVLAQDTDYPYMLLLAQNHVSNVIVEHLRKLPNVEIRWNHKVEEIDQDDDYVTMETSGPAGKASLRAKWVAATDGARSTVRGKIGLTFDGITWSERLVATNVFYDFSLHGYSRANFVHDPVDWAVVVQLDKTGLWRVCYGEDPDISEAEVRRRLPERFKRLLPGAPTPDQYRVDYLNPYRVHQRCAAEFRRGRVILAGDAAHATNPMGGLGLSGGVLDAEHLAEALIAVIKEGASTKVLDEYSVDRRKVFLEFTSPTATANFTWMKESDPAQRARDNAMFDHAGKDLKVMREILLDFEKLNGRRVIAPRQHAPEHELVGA
Nature of the test: colour change of PNP oxidation by purified enzyme. The test is classed as biochemical. To be noted: conditions as in an earlier paper.

Here are results for two compounds from paper PMC4871426, “The Regulation of para-Nitrophenol Degradation in Pseudomonas putida DLL-E4” (PLoS ONE, 2016).

For `Oc1ccc(O)cc1` [hydroquinone], the “UV spectral change, absorption increase at 320 nm” value on PnpC1C2 is “PnpC1C2 and PnpC1C2b both transformed HQ into γ-hydroxymuconic semialdehyde in vitro”.

On to `O=[N+]([O-])c1ccc(O)cc1` [para-nitrophenol], for which, on PnpA, the “colour change of PNP oxidation by purified enzyme” value is reported as “only PnpA had the ability to oxidize PNP”.
